The record followed here is ChEMBL document CHEMBL4715706, “Discovery of Benzotriazolo[4,3-d][1,4]diazepines as Orally Active Inhibitors of BET Bromodomains” (ACS Med Chem Lett, 2016).

For orientation: IC50 means the point on the concentration scale where inhibition reaches its midpoint. As a reminder, the AUC(0-t) is exposure summed from dosing to a finite time, without extrapolation to infinity. As a reminder, the half-life is how long it takes for the measured level to halve. Read a low half-life as fast loss. One may read the microsomal CLint as the rate of metabolic loss divided by the concentration. Read a high microsomal CLint as rapid turnover. The term clearance denotes the volume of plasma or blood freed of the substance per unit of time. A low value points to a low capacity for elimination.

The target in series [1] is Nucleosome-remodeling factor subunit BPTF (Homo sapiens, UniProt Q12830). Kind of series: Inhibition of BPTF (unknown origin) measured after 70 mins by TR-FRET assay. A general note: TR-FRET usually uses a lanthanide donor and a delayed reading to cut background.
A short description of series [2]: AUClast in rat at 10 mg/kg, po. Also noted: time 0 - last, route oral, dose 10 mg/kg. The format is ADME, organism-based. The note with it: in vivo.
In series [3] the target is T1, Bromodomain-containing protein 1 (Homo sapiens, UniProt O95696).
T1 sequence (O95696 whole entry): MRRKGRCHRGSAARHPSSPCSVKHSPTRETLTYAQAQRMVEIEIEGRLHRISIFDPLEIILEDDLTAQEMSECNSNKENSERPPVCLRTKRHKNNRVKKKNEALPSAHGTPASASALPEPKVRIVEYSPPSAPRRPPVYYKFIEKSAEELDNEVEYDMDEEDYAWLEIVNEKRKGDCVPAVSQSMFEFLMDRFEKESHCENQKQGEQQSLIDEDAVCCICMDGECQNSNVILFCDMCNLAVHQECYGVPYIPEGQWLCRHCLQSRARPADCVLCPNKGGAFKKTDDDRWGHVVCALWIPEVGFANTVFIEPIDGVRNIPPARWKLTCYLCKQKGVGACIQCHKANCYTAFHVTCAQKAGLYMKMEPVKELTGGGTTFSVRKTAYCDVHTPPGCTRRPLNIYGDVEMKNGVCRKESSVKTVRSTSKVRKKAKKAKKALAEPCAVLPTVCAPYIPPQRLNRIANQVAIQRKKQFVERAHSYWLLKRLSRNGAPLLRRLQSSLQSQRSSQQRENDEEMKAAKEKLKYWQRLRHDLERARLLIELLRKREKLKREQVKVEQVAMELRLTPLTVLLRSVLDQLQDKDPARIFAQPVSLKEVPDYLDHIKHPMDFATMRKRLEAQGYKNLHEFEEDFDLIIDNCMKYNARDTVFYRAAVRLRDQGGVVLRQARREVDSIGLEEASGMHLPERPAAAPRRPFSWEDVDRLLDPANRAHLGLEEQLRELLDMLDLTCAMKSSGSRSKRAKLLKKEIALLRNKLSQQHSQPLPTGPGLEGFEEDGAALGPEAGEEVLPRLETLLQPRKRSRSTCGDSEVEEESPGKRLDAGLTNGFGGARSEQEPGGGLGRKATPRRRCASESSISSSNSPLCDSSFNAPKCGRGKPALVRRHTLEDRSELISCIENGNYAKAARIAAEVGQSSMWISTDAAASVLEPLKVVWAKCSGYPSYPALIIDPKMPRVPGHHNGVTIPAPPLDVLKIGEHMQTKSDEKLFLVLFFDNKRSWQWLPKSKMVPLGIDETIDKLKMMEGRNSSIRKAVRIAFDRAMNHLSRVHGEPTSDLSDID
Kind of series: Inhibition of BRD1 (unknown origin) measured after 70 mins by TR-FRET assay.

The nature of series [4]: Protein binding in human plasma. Particulars: read-out: PPB (converted). The format is ADME, cell-free.
Series [5] is described as follows: Clearance in rat at 1 mg/kg, iv relative to liver blood flow. The series is classed as ADME, organism-based. Particulars: in vivo.
A further series addresses CREB-binding protein (Homo sapiens, UniProt Q92793). The experiment in a line: Inhibition of His-tagged CBP (unknown origin) using biotinylated acetylated peptide as substrate measured after 20 mins by AlphaLISA assay. On the technique in general: In Alpha technology, singlet oxygen from a donor bead excites a nearby acceptor bead.
Series [6] is described as follows: Half life in rat at 1 mg/kg, iv. The series is classed as ADME, organism-based. Particulars: in vivo.
Series [7] in a line: Unbound clearance in rat at 1 mg/kg, iv. The series is classed as ADME, organism-based. The note with it: in vivo.
The nature of series [8]: Protein binding in dog plasma.
Series [9] concerns the target Bromodomain-containing protein 3 (Homo sapiens, UniProt Q15059). Kind of series: Inhibition of BRD3 BD2 (unknown origin) using biotinylated JQ1 analog as substrate measured after 20 mins by AlphaLISA assay.
A short description of series [10]: Intrinsic clearance in mouse liver microsomes. A general note: Liver microsomes are vesicles of endoplasmic reticulum, rich in cytochrome P450 enzymes.
The nature of series [11]: Intrinsic clearance in rat liver microsomes.
Series [12] can be described thus: Clearance in rat at 1 mg/kg, iv. Particulars: in vivo. The format is ADME, organism-based.
The target in series [13] is T2, ATPase family AAA domain-containing protein 2 (Homo sapiens, UniProt Q6PL18).
T2 sequence (Q6PL18 whole entry): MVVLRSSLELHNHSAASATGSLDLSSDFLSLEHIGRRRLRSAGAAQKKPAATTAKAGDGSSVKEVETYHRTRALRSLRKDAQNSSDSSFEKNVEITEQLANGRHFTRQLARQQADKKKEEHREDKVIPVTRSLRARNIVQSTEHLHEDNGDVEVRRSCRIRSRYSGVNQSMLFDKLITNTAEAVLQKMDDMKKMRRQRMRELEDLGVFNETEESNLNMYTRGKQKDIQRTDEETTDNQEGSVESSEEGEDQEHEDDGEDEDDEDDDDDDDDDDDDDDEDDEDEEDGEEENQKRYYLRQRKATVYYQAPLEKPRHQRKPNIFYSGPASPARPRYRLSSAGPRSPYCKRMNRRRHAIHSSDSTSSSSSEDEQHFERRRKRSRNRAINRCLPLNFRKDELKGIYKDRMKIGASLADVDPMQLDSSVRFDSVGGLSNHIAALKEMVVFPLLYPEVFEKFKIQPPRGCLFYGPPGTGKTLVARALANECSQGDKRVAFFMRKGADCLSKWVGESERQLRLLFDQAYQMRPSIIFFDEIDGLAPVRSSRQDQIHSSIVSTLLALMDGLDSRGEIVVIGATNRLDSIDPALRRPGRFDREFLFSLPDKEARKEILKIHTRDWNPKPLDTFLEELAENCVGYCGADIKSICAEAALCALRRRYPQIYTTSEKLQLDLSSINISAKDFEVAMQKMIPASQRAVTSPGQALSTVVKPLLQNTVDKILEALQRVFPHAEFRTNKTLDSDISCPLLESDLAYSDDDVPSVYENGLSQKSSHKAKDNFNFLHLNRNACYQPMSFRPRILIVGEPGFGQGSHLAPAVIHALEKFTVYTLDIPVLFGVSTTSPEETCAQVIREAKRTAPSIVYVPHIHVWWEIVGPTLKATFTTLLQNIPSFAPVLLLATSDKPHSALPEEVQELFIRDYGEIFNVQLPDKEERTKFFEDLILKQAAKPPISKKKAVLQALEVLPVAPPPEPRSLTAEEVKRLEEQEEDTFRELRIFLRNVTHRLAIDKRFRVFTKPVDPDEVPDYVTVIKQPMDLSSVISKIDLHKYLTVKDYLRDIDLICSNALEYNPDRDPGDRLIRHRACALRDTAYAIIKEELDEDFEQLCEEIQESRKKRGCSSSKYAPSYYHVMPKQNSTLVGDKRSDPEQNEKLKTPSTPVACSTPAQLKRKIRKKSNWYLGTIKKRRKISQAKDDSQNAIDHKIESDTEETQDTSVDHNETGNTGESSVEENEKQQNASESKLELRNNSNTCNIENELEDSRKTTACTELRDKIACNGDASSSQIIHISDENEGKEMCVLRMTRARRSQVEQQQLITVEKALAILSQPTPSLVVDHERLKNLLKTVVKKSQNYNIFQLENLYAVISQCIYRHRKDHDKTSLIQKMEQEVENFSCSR
Kind of series: Inhibition of His-tagged ATAD2 (unknown origin) using biotinylated acetylated peptide as substrate measured after 20 mins by AlphaLISA assay.

In series [14] the target is Bromodomain testis-specific protein (Homo sapiens, UniProt Q58F21). Kind of series: Inhibition of BRDT BD2 (unknown origin) using biotinylated JQ1 analog as substrate measured after 20 mins by AlphaLISA assay.

Structures are written as SMILES.

CREB-binding protein, sequence (Q92793 whole entry): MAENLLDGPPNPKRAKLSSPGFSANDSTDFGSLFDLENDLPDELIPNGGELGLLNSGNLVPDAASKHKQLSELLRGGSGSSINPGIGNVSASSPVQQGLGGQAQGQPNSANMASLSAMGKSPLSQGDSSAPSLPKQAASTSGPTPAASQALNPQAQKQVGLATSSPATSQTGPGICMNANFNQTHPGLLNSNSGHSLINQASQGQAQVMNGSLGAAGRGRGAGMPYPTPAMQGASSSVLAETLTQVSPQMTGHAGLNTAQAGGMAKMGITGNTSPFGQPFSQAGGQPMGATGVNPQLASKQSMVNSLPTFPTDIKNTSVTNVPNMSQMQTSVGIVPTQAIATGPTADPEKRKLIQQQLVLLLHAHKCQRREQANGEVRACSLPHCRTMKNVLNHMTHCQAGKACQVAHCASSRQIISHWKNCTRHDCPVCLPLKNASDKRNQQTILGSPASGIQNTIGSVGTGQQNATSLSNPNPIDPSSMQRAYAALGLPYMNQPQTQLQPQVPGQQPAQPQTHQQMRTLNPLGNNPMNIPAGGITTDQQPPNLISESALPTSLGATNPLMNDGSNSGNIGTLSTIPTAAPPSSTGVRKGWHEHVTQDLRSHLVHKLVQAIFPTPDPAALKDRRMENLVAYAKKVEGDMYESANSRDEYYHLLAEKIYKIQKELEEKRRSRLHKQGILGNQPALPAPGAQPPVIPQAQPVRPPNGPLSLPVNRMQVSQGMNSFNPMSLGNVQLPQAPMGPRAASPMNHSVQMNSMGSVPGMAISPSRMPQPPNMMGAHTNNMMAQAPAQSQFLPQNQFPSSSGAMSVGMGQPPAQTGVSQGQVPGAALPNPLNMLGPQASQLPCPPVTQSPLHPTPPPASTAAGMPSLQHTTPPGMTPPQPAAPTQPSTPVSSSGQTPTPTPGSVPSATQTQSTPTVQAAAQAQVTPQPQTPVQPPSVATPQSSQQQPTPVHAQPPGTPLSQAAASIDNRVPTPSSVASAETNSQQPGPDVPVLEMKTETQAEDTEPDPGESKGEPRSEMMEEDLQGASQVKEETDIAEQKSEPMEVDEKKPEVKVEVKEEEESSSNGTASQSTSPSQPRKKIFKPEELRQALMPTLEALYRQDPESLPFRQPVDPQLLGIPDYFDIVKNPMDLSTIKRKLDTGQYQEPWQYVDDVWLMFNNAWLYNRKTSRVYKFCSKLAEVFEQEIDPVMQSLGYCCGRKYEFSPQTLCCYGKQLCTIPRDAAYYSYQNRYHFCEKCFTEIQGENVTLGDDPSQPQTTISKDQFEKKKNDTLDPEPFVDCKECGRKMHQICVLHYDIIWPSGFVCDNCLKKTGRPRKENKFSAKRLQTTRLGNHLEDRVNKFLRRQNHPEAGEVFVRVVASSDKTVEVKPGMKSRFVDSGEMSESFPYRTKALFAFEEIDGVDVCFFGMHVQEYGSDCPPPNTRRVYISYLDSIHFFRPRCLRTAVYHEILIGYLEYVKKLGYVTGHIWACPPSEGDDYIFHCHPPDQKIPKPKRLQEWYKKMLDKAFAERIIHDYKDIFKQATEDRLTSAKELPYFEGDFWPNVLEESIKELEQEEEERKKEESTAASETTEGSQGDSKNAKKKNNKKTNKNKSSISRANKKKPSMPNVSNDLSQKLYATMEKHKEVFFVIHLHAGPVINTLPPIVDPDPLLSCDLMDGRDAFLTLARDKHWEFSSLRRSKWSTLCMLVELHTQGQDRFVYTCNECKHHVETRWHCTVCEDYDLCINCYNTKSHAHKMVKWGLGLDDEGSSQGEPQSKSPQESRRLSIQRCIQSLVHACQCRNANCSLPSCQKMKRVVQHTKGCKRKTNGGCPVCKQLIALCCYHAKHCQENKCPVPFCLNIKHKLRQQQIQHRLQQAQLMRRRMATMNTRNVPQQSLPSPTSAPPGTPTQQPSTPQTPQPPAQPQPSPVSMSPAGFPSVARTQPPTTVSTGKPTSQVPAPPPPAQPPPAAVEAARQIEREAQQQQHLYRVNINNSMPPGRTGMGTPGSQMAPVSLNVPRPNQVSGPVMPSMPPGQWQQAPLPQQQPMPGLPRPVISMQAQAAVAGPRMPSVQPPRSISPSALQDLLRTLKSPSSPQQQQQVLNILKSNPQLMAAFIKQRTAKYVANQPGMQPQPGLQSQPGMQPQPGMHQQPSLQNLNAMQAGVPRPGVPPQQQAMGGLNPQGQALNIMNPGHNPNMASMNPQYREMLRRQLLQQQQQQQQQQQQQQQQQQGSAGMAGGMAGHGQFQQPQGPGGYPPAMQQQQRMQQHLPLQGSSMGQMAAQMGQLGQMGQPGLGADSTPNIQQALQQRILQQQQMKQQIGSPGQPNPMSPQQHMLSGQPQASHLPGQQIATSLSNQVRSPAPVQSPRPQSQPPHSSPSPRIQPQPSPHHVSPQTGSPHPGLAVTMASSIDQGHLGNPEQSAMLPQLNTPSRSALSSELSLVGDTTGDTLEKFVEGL
Bromodomain-containing protein 3, sequence (Q15059 whole entry): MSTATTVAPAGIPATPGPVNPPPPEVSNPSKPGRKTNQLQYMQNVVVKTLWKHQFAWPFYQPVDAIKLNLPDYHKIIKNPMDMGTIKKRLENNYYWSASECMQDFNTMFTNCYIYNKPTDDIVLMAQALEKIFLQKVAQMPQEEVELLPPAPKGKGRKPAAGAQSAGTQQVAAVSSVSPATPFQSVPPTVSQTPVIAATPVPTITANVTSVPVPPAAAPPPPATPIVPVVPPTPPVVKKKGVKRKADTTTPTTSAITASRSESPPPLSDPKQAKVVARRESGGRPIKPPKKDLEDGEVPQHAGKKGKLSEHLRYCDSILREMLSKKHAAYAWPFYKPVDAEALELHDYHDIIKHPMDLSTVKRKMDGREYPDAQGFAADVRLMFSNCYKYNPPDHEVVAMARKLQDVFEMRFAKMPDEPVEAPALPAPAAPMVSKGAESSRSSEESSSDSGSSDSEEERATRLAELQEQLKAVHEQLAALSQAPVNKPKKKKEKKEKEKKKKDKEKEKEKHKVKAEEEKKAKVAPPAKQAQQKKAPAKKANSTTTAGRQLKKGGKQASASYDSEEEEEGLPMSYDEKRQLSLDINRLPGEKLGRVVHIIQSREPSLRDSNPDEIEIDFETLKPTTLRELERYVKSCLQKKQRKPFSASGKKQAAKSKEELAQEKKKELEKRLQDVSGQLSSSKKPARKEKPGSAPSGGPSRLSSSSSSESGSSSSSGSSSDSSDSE

In the case of `Cc1nnc2n1-c1ccc(-c3ccc(N)nc3)cc1N(c1ccc(Cl)cc1)C[C@H]2C`, the IC50 was more than 15000 nM in series [1]; more than 15000 nM in series [3]; 2200 nM at CREB-binding protein; 3 nM in series [9]; more than 15000 nM in series [13]; 3 nM in series [14]. Also, the area under the curve AUC(0-t) in series [2] is 1.4 µM·h. Further, the fraction unbound in series [4] was 0.02; in series [8], 0.04. This compound also came in with a CL in series [5] of 90%. The half-life in series [6] is 40.2 min. In addition, the CL free in series [7] amounted to 1580 mL/min/kg. Besides, the microsomal CLint in series [10] was 16 µL/min/mg; in series [11], 26 µL/min/mg. The same compound showed a clearance in series [12] of 63.3 mL/min/kg.
